Publication PMC5557808 (Nature Communications, 2017)
Values joined by “and” are separate entries in the source; they are usually repeats but may differ in a detail not shown here. Equal values may be shown once. Where a SMILES comes first, the peptide text is derived from it. [ ]: non-standard residue; d: D form. The star is where a group is joined. X1 = CC[N+](CC)(CC(=O)Nc1c(C)cccc1C)Cc1cccc(C(=O)*)c1; Aha = [N-]=[N+]=NCC[C@H](N)C(=O)O

Assay: Cleavage of PCL denatonium conjugate in collected saliva
Format: in vitro ADME, human
Details: agitation, mean ± s.d.
From the text: Volunteers were enrolled for a cross-sectional study. One group had peri-implant disease (defined as peri-implantitis or mucositis), the other group were healthy volunteers (asymptomatic patients with at least one dental implant). Unstimulated saliva was collected using an absorbent device. Sulcus fluid was collected from the peri-implant zone using standardized, commercially available MMP-8 collection strips and sent to Dentognostics GmbH (Jena, Germany) for analysis (referred to as chair-side test). Determination of total MMP activity in saliva samples was conducted using the human MMP-8 activity assay (QuickZyme, Leiden, the Netherlands) according to the manufacturer’s instructions. Saliva samples from the cross-sectional study were incubated with D-CLAN3Q (ID #1c) in MMP-8 buffer and cleavage was analyzed by HPLC. Further details are given in the Supplementary Methods.
For the collection of sulcus fluid and saliva from peri-implant d iseased p atien ts and fro m health y volunteers, a cross-section al stud y was initiated with the patient group having either a mucositis or a per i-implantitis vs. health y control. […] In this comparative study, the ability of the sensor diagnostic was assessed to discriminate saliva collected fro m p atien ts with peri -imp lan t disease to as ymp to matic carriers of at least on e i mplant (referred to as healthy control). […]

- Cleavage in saliva, healthy subjects, 5-10 min (saliva of healthy volunteers (n = 14) 1:1 with 0.1 mg/mL peptide in MMP buffer pH 6.8-7.0, 37 °C, HPLC decrease of main peak): 1.5 ± 0.8%
- Cleavage in saliva, diseased subjects, 5-10 min (saliva of patients with peri-implant disease (n = 19) 1:1 with 0.1 mg/mL peptide in MMP buffer pH 6.8-7.0, 37 °C, HPLC): 4.2 ± 3.34% and < 5%
Compound: CC[C@H](C)[C@H](NC(=O)CNC(=O)[C@H](CCC(N)=O)NC(=O)[C@@H]1CCCN1C(=O)CNC(=O)c1cccc(C[N+](CC)(CC)CC(=O)Nc2c(C)cccc2C)c1)C(=O)N[C@@H](C)C(=O)NCC(=O)N[C@@H](CCC(N)=O)C(=O)N[C@@H](CCN=[N+]=[N-])C(=O)N[C@@H](CCC(N)=O)C(=O)O [ID #1c] (X1-GPQGIAGQ[Aha]Q-OH)
